Measurements taken from PubChem BioAssay AID1845210 (Molecular Pharmacology Branch, DTP, NCI, 2023).
Several values for one entry are separate records, joined by “and”; a condition that tells them apart may be missing. Equal entries are not always repeated.

System: NCI-H226 complex tumor spheroids, viability
Assay: Anticancer human tumor NCI-H226 cell line growth inhibition;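 note: spheroids exposed to compound for 7 days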;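 for viability, T/C: 100% = DMSO vehicle control viability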
Settings: for viability, T/C: stronger effect = lower value
From the text: Multicellular complex tumor spheroid response to DNA repair inhibitors in combination with DNA-damaging drugs
This study explores the anticancer activities of DNA-damaging drugs and inhibitors of DNA damage repair, both as single agents and in combinations. Complex tumor spheroids comprised of malignant cells, endothelial cells and mesenchymal stem cells served as an in vitro model for human solid tumors. This model system incorporates physiologically relevant features and patient-derived or established malignant cell lines with clinically relevant genetic alterations from many tumor types. Twenty-six patient-derived or established malignant cell lines were evaluated representing sarcoma, melanoma, small cell lung cancer (SCLC), non-small cell lung cancer (NSCLC), as well as bladder, ovarian and pancreatic cancers. The concentration ranges selected for each drug and investigational agent were based upon clinically achievable concentrations if the clinical Cmax of the agent was known.
Compounds. The drugs and compounds olaparib (NSC753686), talazoparib (NSC767125), berzosertib (NSC777718), elimusertib (NSC800525), nedisertib (NSC802822), VX-984 (NSC792969), AZD-1390 (NSC803789), temozolomide (NSC362856), topotecan (NSC609699), trabectedin (NSC813783), staurosporine (NSC755774), and gemcitabine (NSC613327) were obtained from the National Cancer Institute (NCI) Developmental Therapeutics Program Chemical Repository. The FDA-approved anticancer drug set is available from the Developmental Therapeutics Program at https://dtp.cancer.gov/organization/dscb/obtaining/available_plates.htm. […] The stock solutions were prepared in dimethyl sulfoxide (DMSO, Sigma-Aldrich, St. Louis, MO, cat. D2650) at 400-fold the tested concentration and stored at -70 degrees C. Prior to their use, the stock solutions were diluted in fresh medium and the final DMSO concentration in the assay was 0.25% (v/v). All drugs and investigational agents were tested over a range starting from a high concentration at or near the clinical Cmax and decreasing in half-log increments. If the clinical Cmax for an agent had not been determined, the highest concentration tested was 10 microM.
Cell Lines. The patient-derived cancer cell (PDC) lines: 156681-154-R-J1-PDC, 283228-195-R-J1-PDC, 287954-098-R-J1-PDC, 292921-168-R-J2-PDC, 349418-098-R-PDC, 425362-245-T-J1-PDC, 556581-035-R-J1-PDC, and BL0293-F563-PDC were received from the NCI Patient-Derived Models Repository (PDMR, https://pdmr.cancer.gov). The established cell lines HS-SY-2 (RRID:CVCL_8719), MPNST, and SYO-1 (RRID:CVCL_7146) were obtained from the Sloan Kettering Institute. The alveolar soft parts sarcoma cell line ASPS-1 (RRID:CVCL_S738) was established at the NCI and grown from internal seed stocks. The following established cell lines were purchased from the American Type Culture Collection (ATCC, Manassas, VA): G-401 (ATCC, cat. CRL-1441, RRID:CVCL_0270), SW982 (ATCC, cat. HTB-93, RRID:CVCL_1734), VA-ES-BJ (ATCC, cat. CRL-2138, RRID:CVCL_1785), NCI-H719 (ATCC, cat. CRL-5837, RRID:CVCL_1582), NCI-H196 (ATCC, cat. CRL-5823, RRID:CVCL_1509), NCI-H841 (ATCC, cat. CRL-5845, RRID:CVCL_1595), NCI-H1618 (ATCC, cat. CRL-5879, RRID:CVCL_1480), NCI-H1876 (ATCC, cat. CRL-5902, RRID:CVCL_1503), DMS 114 (ATCC, cat. CRL-2066; RRID:CVCL_1174), NCI-H211 (ATCC, cat. CRL-5824; RRID:CVCL_1529), and SW 1271 (ATCC, cat. CRL-2177, RRID:CVCL_1716). The small cell lung cancer cell line COR-L88 was purchased from Sigma-Aldrich (cat. 92031917-1VL, RRID:CVCL_1141). The non-small cell lung cancer cell lines NCI-H226 (RRID:CVCL_1544) and NCI-H322M (RRID:CVCL_1557) were established at the NCI and grown from internal seed stocks. Pooled donor human umbilical vein endothelial cells (HUVEC, Lonza, cat. CC-2519) and human mesenchymal stem cells (hMSC, Lonza, cat. PT-2501) were purchased from Lonza (Walkersville, MD).
Cell Culture. All cells were maintained in an incubator at 37 degrees C and 5% CO2 with 95% humidity. […]

[1] = compound alone, run of 12/12/2019

| Structure (SMILES) | viability, T/C (compound 0.0316 µM) | viability, T/C (compound 0.1 µM) | viability, T/C (compound 0.316 µM) | viability, T/C (compound 1 µM) | viability, T/C (compound 3.16 µM) | IC50 (curve of compound) | viability, T/C (compound 10 µM) | viability, T/C (compound 0.003 µM) | viability, T/C (compound 0.03 µM) | viability, T/C (compound 0.0949 µM) | viability, T/C (compound 0.3 µM) | IC50 (compound alone, run of 12/02/2019) [µM] | IC50 [1] | viability, T/C (compound 0.00949 µM) | viability, T/C (compound 0.949 µM) | viability, T/C (compound 3 µM) | viability, T/C (compound 30 pM) |
| --- | --- | --- | --- | --- | --- | --- | --- | --- | --- | --- | --- | --- | --- | --- | --- | --- | --- |
| CC(C)n1c(=O)n(C)c2cnc3cc(F)c(-c4ccc(OCCCN5CCCCC5)nc4)cc3c21 | 99.6% and 101% and 93.1% | 103% and 96.9% and 104% | 103% and 112% and 102% | 111% and 98% and 84.2% | 107% and 97.5% and 102% | > 10 µM and 5.69 µM and 7.57 µM |  |  |  |  |  |  |  |  |  |  |  |
| CC1COCCN1c1cc(-c2ccnn2C)c2ccnc(-c3ccn[nH]3)c2n1 (configuration not stated) | 93.9% and 94.7% and 94.8% | 102% and 91% and 82.2% | 86% and 74% and 68.6% | 60.4% and 53.3% and 47.3% | 52.5% and 44.6% and 45.4% | 2.74 µM and 1.5 µM and 1.13 µM | 42.9% and 39.2% and 35.2% |  |  |  |  |  |  |  |  |  |  |
| CC[C@@]1(O)C(=O)OCc2c1cc1n(c2=O)Cc2cc3c(CN(C)C)c(O)ccc3nc2-1 |  |  |  |  |  |  |  | 94.5% [middle of 10 runs] | 86% [middle of 10 runs] | 86.1% [middle of 10 runs] | 66.8% [middle of 10 runs] | > 0.3 | > 0.3 µM |  |  |  |  |
| CNCc1ccc(-c2cc(-c3nc(-c4ccc(S(=O)(=O)C(C)C)cc4)cnc3N)on2)cc1 |  |  |  |  |  | 0.678 µM and 1.8 µM and 1.71 µM |  |  | 126% and 123% and 90.1% | 132% and 112% and 106% | 124% and 127% and 118% |  |  | 109% and 97.8% and 83.3% | 20% and 109% (2×) | 0.4% and 2.72% and 0.64% |  |
| COc1cc(C)[nH]c(=O)c1CN1CCc2c(Cl)cc(C(OC)C3COC3)c(Cl)c2C1=O (configuration not stated) | 90.2% and 107% and 114% | 113% and 115% and 102% | 109% and 125% and 108% | 110% and 115% and 102% | 114% and 134% and 116% | > 10 µM | 116% and 120% and 108% |  |  |  |  |  |  |  |  |  |  |
| COc1cc2c(cc1O)CCNC21CSC2c3c(OC(C)=O)c(C)c4c(c3C(COC1=O)N1C(O)C3Cc5cc(C)c(OC)c(O)c5C(C21)N3C)OCO4 (configuration not stated) |  |  |  |  |  |  |  | 1.23% [middle of 10 runs] |  |  |  |  | 1.76 nM [middle of 10 runs] |  |  |  | 104% [middle of 10 runs] |
| COc1ccc([C@@H](O)c2cc(-c3ncnc4cc(N5CCOCC5)ccc34)c(F)cc2Cl)nn1 | 96.6% and 91% and 98.2% | 93.2% and 99.9% and 94.4% | 89.3% and 96.3% and 93.6% | 80.3% and 71.2% and 82.1% | 54.6% and 52.2% and 55.1% | 4.63 µM and 3.04 µM and 4.29 µM | 39.5% and 35.6% (2×) |  |  |  |  |  |  |  |  |  |  |
| Cc1cc(C)c(CNC(=O)c2cc(-c3ccc(CN4CCOCC4)cc3)cc3c2cnn3C2CCCC2)c(=O)[nH]1 | 100% (2×) and 94.5% | 102% and 112% and 103% | 99% and 107% and 112% | 83.4% and 110% and 97.2% | 91% and 115% and 98.1% | > 10 µM | 91.5% and 118% and 100% |  |  |  |  |  |  |  |  |  |  |
| Cc1sc2c(c1C)C(c1ccc(Cl)cc1)=NC(CC(=O)Nc1ccc(O)cc1)c1nnc(C)n1-2 (configuration not stated) |  |  |  |  |  | 0.592 µM and > 3 µM |  |  | 72.7% and 73.6% and 78.2% | 79.5% and 64.3% and 96.1% | 57.7% and 57.8% and 77.4% |  |  | 80.2% and 99.2% and 85.2% | 47.1% and 50.4% and 73.6% | 38.5% and 49.4% and 63.2% |  |
